pKi: −log10 of the molar value.
Each molecule was assayed against T1, 5-hydroxytryptamine receptor 1A (Rattus norvegicus, UniProt P19327) (assay: Binding affinity of compound towards 5-HT 1A receptor by measuring ability to displace [3H]OH-DPAT from 5-hydroxytryptamine 1A receptor in rat hippocampal membranes).
T1 sequence (P19327 whole entry): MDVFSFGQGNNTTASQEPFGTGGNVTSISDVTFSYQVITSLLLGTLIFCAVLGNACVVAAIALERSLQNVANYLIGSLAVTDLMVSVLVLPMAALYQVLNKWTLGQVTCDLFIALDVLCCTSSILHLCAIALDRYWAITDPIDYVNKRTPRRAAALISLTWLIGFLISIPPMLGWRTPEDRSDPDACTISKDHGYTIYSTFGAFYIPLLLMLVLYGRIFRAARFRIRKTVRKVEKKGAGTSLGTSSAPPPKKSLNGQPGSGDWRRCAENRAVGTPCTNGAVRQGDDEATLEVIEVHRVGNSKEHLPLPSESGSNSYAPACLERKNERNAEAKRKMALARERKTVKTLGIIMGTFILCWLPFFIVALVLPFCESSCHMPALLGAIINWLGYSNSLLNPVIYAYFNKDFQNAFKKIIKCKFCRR
In the case of `O=C1c2ccccc2C(=O)N1CCNCCCOc1cccc2ccccc12`, the pKi was 5.88.

Target: T1, 5-hydroxytryptamine receptor 1A
Experiment: as above
Remark: another data set of the same source
In the case of `CN(C)CCc1ccccc1`, the pKi was 6.07. In the case of `O=C1c2ccccc2C(=O)N1CCCNCCCOc1cccc2ccccc12`, the pKi was 7.35. `COc1ccccc1N1CCN(CCCCCN2C(=O)c3ccccc3C2=O)CC1` was tested, and the pKi was 8.30.

What follows are molecules tested against T1, 5-hydroxytryptamine receptor 1A (assay: not given).
Assay type: cell membranes, Membrane
`COc1cccc2c1CC(NCCCN1C(=O)c3ccccc3C1=O)CC2` (stereo not given) was tested, and the pKi was 7.32. `COc1ccc2ccccc2c1N1CCNCC1` gave a pKi of 7.47. Work on `COc1ccccc1CCCNCCCCN1C(=O)c2ccccc2C1=O` yielded a pKi of 6.96. For `COc1ccc2[nH]cc(CCNCCCCN3C(=O)c4ccccc4C3=O)c2c1`, the pKi was 7.70. Work on `CN(CCCCN1C(=O)c2ccccc2C1=O)CCc1ccccc1` yielded a pKi of 6.52. Work on `COc1ccc2cccc(N3CCNCC3)c2c1` yielded a pKi of 8.48. `COc1ccccc1CCCN(C)C` was tested, and the pKi was 5.49. In the case of `O=C1c2ccccc2C(=O)N1CCCCNCCCOc1cccc2ccccc12`, the pKi was 7.60. Work on `COc1ccc2[nH]cc(CCN(C)C)c2c1` [MEBUFOTENIN] yielded a pKi of 8.00. `COc1cccc2c1CC(NCCN1C(=O)c3ccccc3C1=O)CC2` (stereo not given) gave a pKi of 6.60. `COc1ccccc1CCCN(C)CCCCN1C(=O)c2ccccc2C1=O` gave a pKi of 6.77.
